One assay concerns the target T1, IKZF1 (Homo sapiens, UniProt Q13422+Q96SW2).
T1 construct: expressed in transfected cells
Briefly: HEK293 HiBiT in vitro degradation of IKZF1. The format is cell-based. The following applies: for DC50 / IKZF1 Dmax: HEK293 HiBiT; for DC50: 18-24 hr incubation, normalized to DMSO control, read-out: IKZF1 EC50; for Dmax: HEK293, HEK293 HiBiT; for Dmax / IKZF1 Dmax: maximum degradation at the highest concentration tested. The method, boiled down: (§1)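 Degradation was scored as loss of HiBiT signal from C-terminally tagged IKZF1, IKZF2 or SALL4 in doxycycline-induced Flp-In T-REx HEK293 cells after overnight (18-24 h) compound treatment. EC50 and Dmax were derived from the luminescence.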

In another assay the target is IKZF2 (Homo sapiens, UniProt Q96SW2+Q9UKS7). Briefly: HEK293 HiBiT in vitro degradation of IKZF2. The format is cell-based. Details: expressed in transfected cells. The following applies: for Dmax: HEK293, HEK293 HiBiT; for Dmax / IKZF2 Dmax: maximum degradation at the highest concentration tested; for DC50 / IKZF2 Dmax: HEK293 HiBiT; for DC50: 18-24 hr incubation, normalized to DMSO control, read-out: IKZF2 EC50. The method, boiled down: as §1
Sequence of IKZF2 (Q9UKS7 1-500 isoform Q9UKS7-2): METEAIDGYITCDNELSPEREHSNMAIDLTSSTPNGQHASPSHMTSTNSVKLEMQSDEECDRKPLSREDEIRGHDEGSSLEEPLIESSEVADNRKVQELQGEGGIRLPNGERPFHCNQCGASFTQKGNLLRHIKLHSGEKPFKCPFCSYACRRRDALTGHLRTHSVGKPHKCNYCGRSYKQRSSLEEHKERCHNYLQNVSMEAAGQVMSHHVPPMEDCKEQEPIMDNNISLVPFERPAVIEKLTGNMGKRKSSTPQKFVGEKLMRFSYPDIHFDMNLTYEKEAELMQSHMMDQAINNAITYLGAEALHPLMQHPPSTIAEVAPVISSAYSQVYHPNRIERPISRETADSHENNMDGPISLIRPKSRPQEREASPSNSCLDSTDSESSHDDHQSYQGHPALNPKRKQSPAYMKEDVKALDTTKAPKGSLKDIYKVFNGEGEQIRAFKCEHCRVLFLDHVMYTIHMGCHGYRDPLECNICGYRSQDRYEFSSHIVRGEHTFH
Sequence of IKZF2 (Q96SW2 whole entry): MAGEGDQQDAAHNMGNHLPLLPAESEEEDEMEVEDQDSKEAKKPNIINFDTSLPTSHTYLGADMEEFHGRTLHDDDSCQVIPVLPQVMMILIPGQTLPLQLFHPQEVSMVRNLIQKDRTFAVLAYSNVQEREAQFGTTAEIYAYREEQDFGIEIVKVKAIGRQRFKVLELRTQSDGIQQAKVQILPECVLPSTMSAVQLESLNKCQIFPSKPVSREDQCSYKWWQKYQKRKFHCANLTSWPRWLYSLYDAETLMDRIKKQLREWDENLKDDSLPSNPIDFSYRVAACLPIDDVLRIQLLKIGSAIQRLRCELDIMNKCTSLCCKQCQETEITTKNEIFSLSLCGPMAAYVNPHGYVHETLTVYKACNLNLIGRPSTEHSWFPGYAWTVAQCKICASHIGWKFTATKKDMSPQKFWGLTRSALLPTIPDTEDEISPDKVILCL
Sequence of IKZF2 (Q16531 whole entry partner): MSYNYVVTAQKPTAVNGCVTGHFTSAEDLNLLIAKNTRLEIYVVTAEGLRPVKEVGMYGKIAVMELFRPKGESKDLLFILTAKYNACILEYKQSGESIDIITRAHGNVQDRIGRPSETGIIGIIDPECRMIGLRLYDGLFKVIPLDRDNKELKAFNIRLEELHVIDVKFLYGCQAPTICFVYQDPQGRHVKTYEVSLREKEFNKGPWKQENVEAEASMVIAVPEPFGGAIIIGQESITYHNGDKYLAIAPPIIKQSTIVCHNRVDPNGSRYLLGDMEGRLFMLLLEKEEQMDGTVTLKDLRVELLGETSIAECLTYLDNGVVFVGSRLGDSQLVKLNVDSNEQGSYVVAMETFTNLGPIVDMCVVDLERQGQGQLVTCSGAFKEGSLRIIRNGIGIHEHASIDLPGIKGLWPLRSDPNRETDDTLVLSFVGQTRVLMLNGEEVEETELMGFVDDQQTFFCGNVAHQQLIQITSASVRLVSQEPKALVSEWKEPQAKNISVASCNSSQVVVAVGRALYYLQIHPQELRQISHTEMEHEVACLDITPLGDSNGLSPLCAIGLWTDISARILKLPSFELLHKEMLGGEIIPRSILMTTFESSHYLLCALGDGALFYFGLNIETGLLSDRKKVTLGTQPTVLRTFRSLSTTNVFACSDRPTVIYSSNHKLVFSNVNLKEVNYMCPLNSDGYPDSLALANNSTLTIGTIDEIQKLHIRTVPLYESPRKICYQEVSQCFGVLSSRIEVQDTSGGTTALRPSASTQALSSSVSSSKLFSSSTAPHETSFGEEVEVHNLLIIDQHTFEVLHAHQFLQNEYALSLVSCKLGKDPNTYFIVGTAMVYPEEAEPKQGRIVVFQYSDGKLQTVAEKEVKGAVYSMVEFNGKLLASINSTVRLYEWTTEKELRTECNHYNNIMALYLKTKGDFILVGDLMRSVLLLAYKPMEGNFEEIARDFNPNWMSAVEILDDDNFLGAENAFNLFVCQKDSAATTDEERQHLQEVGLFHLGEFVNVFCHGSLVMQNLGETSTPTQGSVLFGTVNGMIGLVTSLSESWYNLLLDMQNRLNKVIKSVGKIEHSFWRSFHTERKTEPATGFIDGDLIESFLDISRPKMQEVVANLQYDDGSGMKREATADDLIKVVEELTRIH
(In general: HiBiT is a short tag that completes a luciferase, so light tracks the accessible tagged protein.)

Experimental findings from US11897862B2 (Gilead Sciences, Inc., priority 2022, dated 2024) are described below.

Molecules are shown by their SMILES.

T1 sequence (Q13422 whole entry): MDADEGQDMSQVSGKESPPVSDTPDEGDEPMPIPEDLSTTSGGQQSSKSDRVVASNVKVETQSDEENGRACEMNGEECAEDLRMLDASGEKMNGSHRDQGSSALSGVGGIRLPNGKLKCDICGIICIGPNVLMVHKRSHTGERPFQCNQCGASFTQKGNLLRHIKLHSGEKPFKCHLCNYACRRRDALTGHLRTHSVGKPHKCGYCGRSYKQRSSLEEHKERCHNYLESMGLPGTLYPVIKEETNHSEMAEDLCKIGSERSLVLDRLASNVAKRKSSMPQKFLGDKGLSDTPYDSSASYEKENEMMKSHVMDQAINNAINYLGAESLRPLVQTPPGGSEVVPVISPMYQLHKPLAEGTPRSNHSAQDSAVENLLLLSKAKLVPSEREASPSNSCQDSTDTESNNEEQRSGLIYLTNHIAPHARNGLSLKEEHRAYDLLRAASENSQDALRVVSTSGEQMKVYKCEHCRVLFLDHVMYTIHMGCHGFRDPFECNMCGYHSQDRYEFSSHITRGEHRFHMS
T1 sequence (Q96SW2 whole entry): as the sequence (Q96SW2 whole entry) above
T1 sequence (Q16531 whole entry partner): as the sequence (Q16531 whole entry partner) above

Regarding `O=C1CCC(N2Cc3c(ccc(C[C@H]4CCCC[C@@H]4NCc4ccccc4)c3F)C2=O)C(=O)N1` (stereo partly drawn) [Example 11, 3-(5-(((1R,2S)-2-(benzylamino)cyclohexyl)methyl)-4-fluoro-1-oxoisoindolin-2-yl)piperidine-2,6-dione], the DC50 at IKZF1 is more than 1000 nM. For the same compound, at IKZF2, the Dmax turned out to be 98% and the DC50 was found to be 7 nM.
Taken in the same sequence, the figures for `CC(C)N[C@H]1CCCO[C@@H]1Cc1ccc2c(c1)CN(C1CCC(=O)NC1=O)C2=O` (stereo partly drawn) [Example 180] were more than 1000 nM, 85% and 39 nM.
`O=C1CCC(N2Cc3c(ccc(C[C@H]4OCCC[C@@H]4NC4CCCOC4)c3F)C2=O)C(=O)N1` (single isomer, unassigned) [Example 262]: the DC50 at IKZF1 is more than 1000 nM. In addition, on IKZF2, the Dmax was found to be 85% and the DC50 stood at 72 nM.
As for `O=C1CC[C@@H](N2Cc3c(ccc(C[C@H]4OCCC[C@@H]4N[C@H]4CC[C@@H](F)CC4)c3F)C2=O)C(=O)N1` (single isomer, unassigned) [Example 372], the DC50 is more than 1000 nM on IKZF1 and 5 nM on IKZF2. Moreover, on IKZF2, the Dmax amounted to 94%.
As for `O=C1CCC(N2Cc3cc(C[C@H]4CCCC[C@@H]4NC4CC5CCC5C4)ccc3C2=O)C(=O)N1` (stereo partly drawn) [Example 132], the Dmax came to 45% on IKZF1 and 97% at IKZF2. The DC50 at IKZF1 was determined as 66 nM; on IKZF2, 4 nM.
Regarding `O=C1CCC(N2Cc3cc(C[C@H]4CCCC[C@@H]4NCCCC(F)F)ccc3C2=O)C(=O)N1` (stereo partly drawn) [Example 135], the greatest degradation seen (Dmax) on IKZF1 was determined as 24%; at IKZF2, 93%. Moreover, the DC50 is 77 nM at IKZF1 and 16 nM on IKZF2.
As for `CC(N[C@H]1CCCC[C@@H]1Cc1ccc2c(c1)CN(C1CCC(=O)NC1=O)C2=O)C1CCOCC1` (stereo partly drawn) [Example 200], on IKZF1, the DC50 is more than 1000 nM. On IKZF2, the maximal degradation (Dmax) was 96% and the DC50 came to 4 nM.
With `CC1(C)CCC(N[C@H]2CCCO[C@@H]2Cc2ccc3c(c2F)CN(C2CCC(=O)NC2=O)C3=O)C1` (single isomer, unassigned) [Example 259], on IKZF1, the DC50 was 68 nM and the “IKZF1 Dmax” value was 25%. Also, on IKZF2, the DC50 amounted to 11 nM and the “IKZF2 Dmax” value came to 96%.
Turning to `CC(C)N[C@H]1CCC(F)(F)C[C@@H]1Cc1ccc2c(c1)CN(C1CCC(=O)NC1=O)C2=O` (stereo partly drawn) [Example 315], at IKZF1, the DC50 was more than 1000 nM. Also, on IKZF2, the Dmax stood at 88% and the DC50 was 28 nM.
For `O=C1CCC(N2Cc3cc(C[C@H]4CCCC[C@@H]4NC4CCCOC4)ccc3C2=O)C(=O)N1` (single isomer, unassigned) [Example 261], the DC50 on IKZF1 is more than 1000 nM. Also, on IKZF2, the DC50 came to 6 nM and the “IKZF2 Dmax” value came to 96%.
Taken in the same sequence, the figures for `CC(N[C@H]1CCCC[C@@H]1Cc1ccc2c(c1)CN(C1CCC(=O)NC1=O)C2=O)C1(C)CC1` (stereo partly drawn) [Example 235] were more than 1000 nM, 9 nM and 97%.
Turning to `O=C1CCC(N2Cc3cc(C[C@H]4CCCC[C@@H]4NC4COC4)ccc3C2=O)C(=O)N1` (stereo partly drawn) [Example 72], on IKZF1, the DC50 was more than 1000 nM. At IKZF2, the Dmax came out at 83% and the DC50 was 35 nM.
On to `CC1(C)CCC(N[C@H]2CCCO[C@@H]2Cc2ccc3c(c2F)CN(C2CCC(=O)NC2=O)C3=O)C1` (single isomer, unassigned) [Example 258], for which the greatest degradation seen (Dmax) at IKZF1 was 30%; on IKZF2, 97%. The values for the DC50 at IKZF1 and at IKZF2 were 78 nM and 4 nM, respectively.
With `O=C1CCC(N2Cc3cc(C[C@H]4CCCC[C@@H]4NC4CCS(=O)(=O)CC4)ccc3C2=O)C(=O)N1` (stereo partly drawn) [Example 91, 3-(5-(((1R,2S)-2-((1,1-dioxidotetrahydro-2H-thiopyran-4-yl)amino)cyclohexyl)methyl)-1-oxoisoindolin-2-yl)piperidine-2,6-dione], at IKZF1, the maximal degradation (Dmax) worked out at 47% and the DC50 is 160 nM. Moreover, on IKZF2, the Dmax was determined as 97% and the DC50 was found to be 17 nM.
Regarding `O=C1CCC(N2Cc3cc(C[C@H]4CCCC[C@@H]4NCc4c(F)cncc4F)ccc3C2=O)C(=O)N1` (stereo partly drawn) [Example 43, 3-(5-(((1R,2S)-2-(((3,5-difluoropyridin-4-yl)methyl)amino)cyclohexyl)methyl)-1-oxoisoindolin-2-yl)piperidine-2,6-dione], the figures for the DC50 on IKZF1 and at IKZF2 were more than 1000 nM and 91 nM, respectively. In addition, the greatest degradation seen (Dmax) at IKZF2 was 45%.
With `CCOC1CN([C@H]2CCCC[C@@H]2Cc2ccc3c(c2)CN(C2CCC(=O)NC2=O)C3=O)C1` (stereo partly drawn) [Example 31, 3-(5-(((1R,2S)-2-(3-ethoxyazetidin-1-yl)cyclohexyl)methyl)-1-oxoisoindolin-2-yl)piperidine-2,6-dione], the DC50 at IKZF1 is more than 1000 nM; on IKZF2, 30 nM. This compound also showed a Dmax at IKZF2 of 85%.
On to `CC(N[C@H]1CCCC[C@@H]1Cc1ccc2c(c1)CN(C1CCC(=O)NC1=O)C2=O)C1CCCO1` (single isomer, unassigned) [Example 253], for which, at IKZF1, the DC50 was more than 1000 nM. In addition, at IKZF2, the greatest degradation seen (Dmax) was determined as 96% and the DC50 turned out to be 9 nM.
As for `CC(CC1CC1)N[C@H]1CCCC[C@@H]1Cc1ccc2c(c1)CN(C1CCC(=O)NC1=O)C2=O` (single isomer, unassigned) [Example 230], on IKZF1, the Dmax was determined as 30% and the DC50 came out at 66 nM. On IKZF2, the Dmax was 96% and the DC50 is 3 nM.
In the case of `O=C1CCC(N2Cc3cc(C[C@H]4CCCC[C@@H]4NC4CC5(COC5)C4)ccc3C2=O)C(=O)N1` (stereo partly drawn) [Example 80, 3-(5-(((1R,2S)-2-((2-oxaspiro[3.3]heptan-6-yl)amino)cyclohexyl)methyl)-1-oxoisoindolin-2-yl)piperidine-2,6-dione], on IKZF1, the maximal degradation (Dmax) is 32% and the DC50 came to 299 nM. At IKZF2, the Dmax is 95% and the DC50 amounted to 33 nM.
Turning to `C[C@H]1CCCC(N[C@H]2CCCC[C@@H]2Cc2ccc3c(c2)CN(C2CCC(=O)NC2=O)C3=O)C1` (stereo partly drawn) [Example 237], at IKZF1, the DC50 came to 208 nM and the “IKZF1 Dmax” value turned out to be 39%. Further, on IKZF2, the DC50 was found to be 2 nM and the “IKZF2 Dmax” value came to 96%.
In the case of `O=C1CCC(N2Cc3cc(C[C@H]4CCCC[C@@H]4NCC4CCC(F)(F)CC4)ccc3C2=O)C(=O)N1` (stereo partly drawn) [Example 10, 3-(5-(((1R,2S)-2-(((4,4-difluorocyclohexyl)methyl)amino)cyclohexyl)methyl)-1-oxoisoindolin-2-yl)piperidine-2,6-dione], the greatest degradation seen (Dmax) amounted to 46% at IKZF1 and 96% at IKZF2. Besides, the DC50 is 388 nM at IKZF1 and 13 nM on IKZF2.
As for `O=C1CCC(N2Cc3c(ccc(C[C@H]4CCCC[C@@H]4N(Cc4ccccc4)Cc4ccccc4)c3F)C2=O)C(=O)N1` (stereo partly drawn) [Example 5, 3-(5-(((1R,2S)-2-(dibenzylamino)cyclohexyl)methyl)-4-fluoro-1-oxoisoindolin-2-yl)piperidine-2,6-dione], the DC50 on IKZF1 was more than 1000 nM. At IKZF2, the Dmax is 92% and the DC50 stood at 353 nM.
Turning to `O=C1CCC(N2Cc3cc(C[C@H]4CC(F)(F)CC[C@@H]4NC4CCCCC4)ccc3C2=O)C(=O)N1` (stereo partly drawn) [Example 313, 3-(5-(((1S,2S)-2-(cyclohexylamino)-5,5-difluorocyclohexyl)methyl)-1-oxoisoindolin-2-yl)piperidine-2,6-dione], the DC50 at IKZF1 was more than 1000 nM. On IKZF2, the Dmax came to 88% and the DC50 came to 27 nM.
The corresponding values for `O=C1CCC(N2Cc3cc(C[C@H]4CCCC[C@@H]4NCC45CCC(CC4)CC5)ccc3C2=O)C(=O)N1` (stereo partly drawn) [Example 83, 3-(5-(((1R,2S)-2-((bicyclo[2.2.2]octan-1-ylmethyl)amino)cyclohexyl)methyl)-1-oxoisoindolin-2-yl)piperidine-2,6-dione] are more than 1000 nM, 92% and 37 nM.
On to `O=C1CCC(N2Cc3cc(C[C@H]4CCCC[C@@H]4NC4CCC(F)(F)CC4)c(F)cc3C2=O)C(=O)N1` (stereo partly drawn) [Example 350], for which, at IKZF1, the Dmax stood at 50% and the DC50 was 124 nM. Also, at IKZF2, the Dmax was determined as 94% and the DC50 was determined as 10 nM.
Taken in the same sequence, the figures for `[2H]C1(N[C@H]2CCCC[C@@H]2Cc2ccc3c(c2F)CN(C2CCC(=O)NC2=O)C3=O)CCCCC1` (stereo partly drawn) [Example 211] were 37%, 54 nM, 98% and 1 nM.
In the case of `O=C1CC[C@H](N2Cc3c(ccc(C[C@H]4OCCC[C@@H]4N[C@H]4CC[C@@H](C(F)F)CC4)c3F)C2=O)C(=O)N1` [Example 368], the DC50 at IKZF1 was more than 1000 nM; on IKZF2, 8 nM. On IKZF2, this compound had a Dmax of 96%.
Turning to `COC(C)(C)CCN[C@H]1CCCC[C@@H]1Cc1ccc2c(c1)CN(C1CCC(=O)NC1=O)C2=O` (stereo partly drawn) [Example 134], the DC50 at IKZF1 is more than 1000 nM; on IKZF2 it was 61 nM. The greatest degradation seen (Dmax) on IKZF2 worked out at 97%.
Regarding `O=C1CCC(N2Cc3cc(C[C@H]4CCCC[C@@H]4NC4CCCC[C@@H]4F)ccc3C2=O)C(=O)N1` (stereo partly drawn) [Example 106], on IKZF1, the DC50 is 79 nM and the “IKZF1 Dmax” value is given as 24%. Also, at IKZF2, the DC50 came to 10 nM and the “IKZF2 Dmax” value is recorded as 95%.
Consider `CC(C)C(C)N[C@H]1CCCO[C@@H]1Cc1ccc2c(c1F)CN(C1CCC(=O)NC1=O)C2=O` (stereo partly drawn) [Example 306], for which the DC50 was more than 1000 nM at IKZF1 and 10 nM on IKZF2. This compound also displayed a Dmax at IKZF2 of 95%.

What is called Dmax is the greatest extent of degradation seen. A lower Dmax goes with a partial loss of target.
